These are literature values, as cited in patent publication US20230302026A1, “IMMUNOMODULATION FORMULATIONS AND RELATED METHODS” (priority 2020, published 2023).

Molecules are shown by their SMILES. Values after ≈ are worked out from the molar mass of the structure shown. Like-named read-outs stand apart in the source and are kept apart here.

Data set [1] deals with monoamine oxidase. The note with it: in vitro; read-out: IC50 as monoamine oxidase inhibitor (MAOI).
The conditions of data set [2]: at 18° C.
The test system of data set [3] is FAAH. The conditions noted are these: read-out: IC50 as FAAH inhibitor.
Data set [4] addresses T1, MAGL (Homo sapiens, UniProt Q99685).
T1 sequence (Q99685 1-303): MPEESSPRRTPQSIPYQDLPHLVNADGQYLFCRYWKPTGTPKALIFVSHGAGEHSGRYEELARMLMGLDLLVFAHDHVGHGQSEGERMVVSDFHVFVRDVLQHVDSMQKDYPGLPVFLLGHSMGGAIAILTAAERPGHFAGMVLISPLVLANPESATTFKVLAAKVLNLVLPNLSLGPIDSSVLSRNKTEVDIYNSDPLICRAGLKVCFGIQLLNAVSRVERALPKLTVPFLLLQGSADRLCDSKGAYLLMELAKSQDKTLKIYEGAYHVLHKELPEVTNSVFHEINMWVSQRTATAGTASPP
The conditions noted are these: read-out: IC50 as MAGL inhibitor.

Data set [5] deals with T2, CB2 (Homo sapiens, UniProt P34972).
Data set [6] has as its target T3, CB1 (Homo sapiens, UniProt P21554). The note with it: read-out: Ki, affinity for the human recombinant CB1 receptor.
Target sequence in this assay (P21554 whole entry): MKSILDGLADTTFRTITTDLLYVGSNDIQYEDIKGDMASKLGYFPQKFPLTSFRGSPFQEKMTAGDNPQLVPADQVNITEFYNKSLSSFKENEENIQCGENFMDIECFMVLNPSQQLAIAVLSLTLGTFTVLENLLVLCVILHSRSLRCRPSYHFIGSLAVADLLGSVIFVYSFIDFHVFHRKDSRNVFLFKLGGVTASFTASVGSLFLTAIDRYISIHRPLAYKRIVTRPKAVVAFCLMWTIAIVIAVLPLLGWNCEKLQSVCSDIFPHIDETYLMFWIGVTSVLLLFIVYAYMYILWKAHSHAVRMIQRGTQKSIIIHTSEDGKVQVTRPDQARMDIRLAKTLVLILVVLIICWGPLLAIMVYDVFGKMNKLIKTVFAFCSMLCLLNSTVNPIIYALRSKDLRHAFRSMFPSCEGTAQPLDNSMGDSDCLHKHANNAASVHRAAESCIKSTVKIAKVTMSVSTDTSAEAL
Data set [7] has as its target GPR55 (Homo sapiens, UniProt Q9Y2T6).
Data set [8] has as its target TRPV1 (Homo sapiens, UniProt Q8NER1).
Data set [9] has as its target T3, CB1.
Target sequence in this assay (P21554 whole entry, species assumed): as the sequence (P21554 whole entry) above
Data set [10] has as its target T2, CB2. The source holds these as a separate data set.
Data set [11] has as its target Adenosine A2A (Homo sapiens, UniProt P29274).
For data set [12], the target named is T4, 5-HT1a (Homo sapiens, UniProt P08908).
T4 sequence (P08908 1-422): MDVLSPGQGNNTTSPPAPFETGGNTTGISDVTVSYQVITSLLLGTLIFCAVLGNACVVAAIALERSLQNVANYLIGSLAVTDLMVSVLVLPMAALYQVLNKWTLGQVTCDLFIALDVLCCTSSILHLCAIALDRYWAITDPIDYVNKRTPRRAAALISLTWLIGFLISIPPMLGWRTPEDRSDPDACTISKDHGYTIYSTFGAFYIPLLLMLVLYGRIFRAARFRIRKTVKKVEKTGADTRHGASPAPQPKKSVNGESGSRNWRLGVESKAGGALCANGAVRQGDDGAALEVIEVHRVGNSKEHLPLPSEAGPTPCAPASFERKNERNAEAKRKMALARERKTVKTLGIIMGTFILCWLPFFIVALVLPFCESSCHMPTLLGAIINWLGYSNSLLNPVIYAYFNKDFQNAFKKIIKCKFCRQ

Data set [13] concerns the target T5, FAAH (Homo sapiens, UniProt O00519).
T5 sequence (O00519 1-579): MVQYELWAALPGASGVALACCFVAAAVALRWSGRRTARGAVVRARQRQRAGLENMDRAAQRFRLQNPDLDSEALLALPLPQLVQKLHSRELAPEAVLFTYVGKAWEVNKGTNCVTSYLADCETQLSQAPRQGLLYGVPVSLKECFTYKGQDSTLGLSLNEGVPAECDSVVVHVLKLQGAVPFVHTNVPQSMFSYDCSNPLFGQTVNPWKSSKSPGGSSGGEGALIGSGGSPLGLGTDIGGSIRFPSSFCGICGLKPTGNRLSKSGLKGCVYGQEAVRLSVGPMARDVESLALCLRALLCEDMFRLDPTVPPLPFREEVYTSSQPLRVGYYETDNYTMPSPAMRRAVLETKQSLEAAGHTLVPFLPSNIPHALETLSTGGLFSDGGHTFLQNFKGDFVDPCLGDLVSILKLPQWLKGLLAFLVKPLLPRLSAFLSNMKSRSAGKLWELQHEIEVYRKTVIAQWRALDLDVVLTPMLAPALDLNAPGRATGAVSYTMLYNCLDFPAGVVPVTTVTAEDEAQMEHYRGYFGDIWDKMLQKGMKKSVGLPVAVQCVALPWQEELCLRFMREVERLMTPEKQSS

Data set [14] deals with inflammation. The note with it: animal model.

T2 sequence (P34972 whole entry): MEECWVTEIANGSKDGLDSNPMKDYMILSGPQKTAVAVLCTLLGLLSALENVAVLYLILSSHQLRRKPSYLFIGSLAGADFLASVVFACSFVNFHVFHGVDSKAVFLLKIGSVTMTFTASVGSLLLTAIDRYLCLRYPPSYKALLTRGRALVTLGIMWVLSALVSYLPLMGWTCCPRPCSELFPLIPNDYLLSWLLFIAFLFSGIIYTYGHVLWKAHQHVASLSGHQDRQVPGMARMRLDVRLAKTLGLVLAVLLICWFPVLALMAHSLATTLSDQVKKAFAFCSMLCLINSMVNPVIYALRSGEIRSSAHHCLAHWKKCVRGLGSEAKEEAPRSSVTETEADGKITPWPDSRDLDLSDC
Chain of TRPV1 (Q8NER1 whole entry, species assumed): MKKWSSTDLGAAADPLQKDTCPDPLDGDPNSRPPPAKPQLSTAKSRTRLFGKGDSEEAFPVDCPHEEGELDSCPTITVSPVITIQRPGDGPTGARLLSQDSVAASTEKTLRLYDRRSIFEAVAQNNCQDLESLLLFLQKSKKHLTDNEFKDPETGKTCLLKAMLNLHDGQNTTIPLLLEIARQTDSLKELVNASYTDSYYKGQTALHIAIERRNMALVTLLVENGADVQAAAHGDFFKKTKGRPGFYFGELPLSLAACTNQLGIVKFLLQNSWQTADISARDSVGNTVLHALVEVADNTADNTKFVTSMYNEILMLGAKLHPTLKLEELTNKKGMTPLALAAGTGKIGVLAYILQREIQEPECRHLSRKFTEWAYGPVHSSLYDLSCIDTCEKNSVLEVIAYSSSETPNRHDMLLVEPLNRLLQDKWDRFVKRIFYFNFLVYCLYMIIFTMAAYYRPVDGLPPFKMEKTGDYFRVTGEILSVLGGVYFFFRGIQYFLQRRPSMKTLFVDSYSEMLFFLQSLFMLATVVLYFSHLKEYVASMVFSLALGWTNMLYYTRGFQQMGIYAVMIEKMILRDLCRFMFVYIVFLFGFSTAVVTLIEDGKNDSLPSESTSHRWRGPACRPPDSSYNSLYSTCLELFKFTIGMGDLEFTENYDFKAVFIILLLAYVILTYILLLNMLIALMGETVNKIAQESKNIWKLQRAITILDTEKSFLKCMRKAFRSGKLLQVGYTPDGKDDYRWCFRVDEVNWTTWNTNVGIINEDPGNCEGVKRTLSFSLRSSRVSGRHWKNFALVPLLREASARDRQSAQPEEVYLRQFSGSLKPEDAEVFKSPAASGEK
Chain of Adenosine A2A (P29274 whole entry): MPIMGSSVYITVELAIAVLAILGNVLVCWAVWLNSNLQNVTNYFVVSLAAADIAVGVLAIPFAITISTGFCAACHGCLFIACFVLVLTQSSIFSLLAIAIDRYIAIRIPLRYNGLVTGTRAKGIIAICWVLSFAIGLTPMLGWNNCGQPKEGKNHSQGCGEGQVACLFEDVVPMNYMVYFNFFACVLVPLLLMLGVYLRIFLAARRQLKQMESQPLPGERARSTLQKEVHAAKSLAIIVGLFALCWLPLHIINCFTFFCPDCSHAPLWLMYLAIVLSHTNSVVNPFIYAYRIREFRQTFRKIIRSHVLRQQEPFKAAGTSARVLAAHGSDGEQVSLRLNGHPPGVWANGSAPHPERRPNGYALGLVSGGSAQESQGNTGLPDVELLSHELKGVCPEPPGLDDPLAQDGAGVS
Chain of GPR55 (Q9Y2T6 whole entry, species assumed): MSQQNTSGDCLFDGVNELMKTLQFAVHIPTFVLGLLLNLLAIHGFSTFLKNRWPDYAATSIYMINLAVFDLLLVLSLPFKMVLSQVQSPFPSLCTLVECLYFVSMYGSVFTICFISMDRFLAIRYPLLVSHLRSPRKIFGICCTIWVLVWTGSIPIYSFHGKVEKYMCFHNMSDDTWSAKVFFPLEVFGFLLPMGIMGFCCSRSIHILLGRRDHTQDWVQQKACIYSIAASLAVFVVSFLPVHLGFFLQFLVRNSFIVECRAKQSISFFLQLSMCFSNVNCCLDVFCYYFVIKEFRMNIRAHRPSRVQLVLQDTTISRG

`CC(C)CNC(=O)/C=C/C=C/CCCCCC/C=C/c1ccc2c(c1)OCO2` [guineesine]: the IC50 (in general, the concentration that gives 50% inhibition) in data set [1] was 139 µM.
Consider `O=C(/C=C/C=C/c1ccc2c(c1)OCO2)N1CCCCC1` [piperine], for which the solubility in water in [2] is 40 µg/mL (≈ 140 µM).
In the case of `O=c1c(O)c(-c2ccc(O)cc2)oc2cc(O)cc(O)c12` [kaempherol], the IC50 in data set [3] is less than 1 µM; in [4] it was less than 0.1 µM.
Turning to `c1ccc2c(Cc3c[nH]c4ccccc34)c[nH]c2c1` [3,3′-Diindolylmethane], in [5], the inhibition constant Ki – broadly, the dissociation constant of the complex between target and ligand, obtained from inhibition or displacement – was approximately 1 µM.
For the molecule `C=CC(C)(C)c1cc2cc3c(cc2oc1=O)OC(C(C)(C)OC(C)=O)C3` (stereo not drawn) [rutamarin], the Ki in data set [5] was less than 10 µM.
As for `COc1ccc(/C=C/c2cc(OC)cc(=O)o2)cc1` [Yangonin, yangonin], the Ki in data set [6] was 0.72 µM; in [5], more than 10 µM.
Consider `C=C1CC/C=C(\C)CC[C@@H]2[C@@H]1CC2(C)C` [(E)-BCP, beta-carophyllene], for which the Ki in data set [5] is 0.155 ± 0.004 µM.
`C=C(C)[C@@H]1CCC(C)=C[C@H]1c1c(O)cc(CCCCC)cc1O` [cannabidiol]: the “Activity at GPR55” value in data set [7] is on record as “Antagonist”. Besides, the “Activity at TRPV1” value in data set [8] is reported as “Agonist”. Further, the “Activity at CB1” value in [9] is “Agonist”. Further, the “activity at CB2” value in data set [10] is on record as “Agonist”. Besides, in [11], the “Activity at Adenosine A2A” value was “Agonist”. The “Activity at 5-HT1a” value in data set [12] is “Agonist”. For the same molecule, in data set [13], the “Activity at FAAH” value was “Inhibition”.
For the molecule `C/C1=C\CC/C(C)=C/CC(C)(C)/C=C/C1` [Humulene], in data set [14], the anti-inflammatory activity entry is listed as “equal to dexamethasone”.
On to `CCCCCc1cc(O)c2c(c1)OC(C)(C)[C@@H]1CCC(C)=C[C@@H]21` [THC, Δ^9-tetrahydrocannabinol], for which, in [5], the “activity at CB2” value is listed as “partial agonist”.
